Source: US20230100235A1, “ANTICANCER AGENT COMPOSITION” (CARNA BIOSCIENCES, INC., priority 2020, published 2023)
Structures can show the parent of a compound that is named as a salt. Where two headings read alike, the source gives them in different places.

What was measured:
Type in all cases: cell-based, Human
[1] = tested on: BTK-C481S-mutant OCI-Ly10 cells; assay: Cell proliferation suppression test of single agents, BTK-C481S-mutant OCI-Ly10; details: single agent, read-out: Inhibitory activity on cell proliferation OCI-Ly10 BTK-C481S IC50
Protocol: (§1) The OCI-Ly10 or U2932 cells (20000 cells/well) were seeded into 96-well plates (cell plates), to which the test compound diluted with the medium was added at final concentrations of 0.009 nM to 30000 nM (a final DMSO concentration of 0.3%), and after 96 hours of culture, an Alamar Blue reagent (Thermo Fisher Scientific Inc.) was added. After 3 hours, the fluorescence of excitation wavelength 560 nm/fluorescence wavelength 590 nm was measured and IC50 values of inhibitory activity were determined by setting a compound-free and cell-free well as 100% and a compound-free and cell-containing well as 0%.
BTK-C481S-mutant OCI-Ly10 cells were produced by point mutation knock-in using the CRISPR-Cas9 system. Cas9 protein (Thermo Fisher Scientific Inc.), guide RNA prepared with GeneArt™ Precision gRNA Synthesis Kit (Thermo Fisher Scientific Inc.), and a single-stranded synthetic oligonucleotide to replace 481st cysteine residue of BTK with a serine residue were introduced into OCI-Ly10 cells by an electroporation method. The resulting modified OCI-Ly10 cells were cultured in the presence of ibrutinib, and the grown cells were used as BTK-C481S-mutant OCI-Ly10 cells. Transduction of the mutation was confirmed by genomic DNA and mRNA sequence analysis.
In the same manner as in Test Example 1, IC50 values for each inhibitor single agent were determined.

[2] = tested on: OCI-Ly10 cells; assay: Cell proliferation suppression test of single agents, OCI-Ly10 (Alamar Blue, 96 h); details: read-out: Inhibitory Activity on cell proliferation IC50 OCI-Ly10
Protocol: Human lymphoma cell line OCI-Ly10 cells (obtained from University Health Network) were cultured in a 5% CO2 incubator using IMDM medium (Iscove's Modified Dulbecco's Medium, Thermo Fisher Scientific Inc.) containing 20% fetal bovine serum (GE Healthcare) and 1% penicillin streptomycin (NACALAI TESQUE, INC.).
as §1

[3] = tested on: U2932 cells; assay: Cell proliferation suppression test of single agents, U2932 (Alamar Blue, 96 h); details: read-out: Inhibitory Activity on cell proliferation IC50 U2932
Protocol: Human lymphoma cell line U2932 cells (obtained from DSMZ) were cultured in a 5% CO2 incubator using RPMI medium (Roswell Park Memorial Institute medium, Thermo Fisher Scientific Inc.) containing 10% fetal bovine serum (GE Healthcare) and 1% penicillin streptomycin (NACALAI TESQUE, INC.).
as §1

[4] = Homo sapiens, OCI-Ly10, single agent
[5] = Homo sapiens, U2932, single agent

Row | IC50 ([1]; Homo sapiens, OCI-Ly10) | IC50 [2, 4] | IC50 [1] | IC50 ([2]; single agent) | Compound | IC50 [3, 5] | IC50 ([3]; single agent)
1 | 20 nM | 10 nM | – | – | CC1(C)CCC(CN2CCN(c3ccc(C(=O)NS(=O)(=O)c4ccc(NCC5CCOCC5)c([N+](=O)[O-])c4)c(Oc4cnc5[nH]ccc5c4)c3)CC2)=C(c2ccc(Cl)cc2)C1 [venetoclax] | 720 nM | –
2 | 150 nM | 150 nM | – | – | COC1=CC(c2cc3ccccc3[nH]2)=N/C1=C\c1[nH]c(C)cc1C [obatoclax mesylate] | 190 nM | –
3 | – | – | 120 nM | 69 nM | O=C(c1cc(-c2cc3c(cc2C(=O)N2Cc4ccccc4C[C@H]2CN2CCOCC2)OCO3)n2c1CCCC2)N(c1ccccc1)c1ccc(O)cc1 [Compound S-55746] | – | 1350 nM
4 | 96 nM | 68 nM | – | – | CC1(C)CCC(c2ccc(Cl)cc2)=C(CN2CCN(c3ccc(C(=O)NS(=O)(=O)c4ccc(N[C@H](CCN5CCOCC5)CSc5ccccc5)c(S(=O)(=O)C(F)(F)F)c4)cc3)CC2)C1 [navitoclax] | 390 nM | –
